Laboratory results from paper PMC11955804, “Histidine-rich enantiomeric peptide coacervates enhance antigen sequestration and presentation to T cells” (Chemical Science, 2025).

What was measured:
[1] = system: CD4+T cells from OT-II mice on BMDCs; assay: OT-II CD4+ T cell proliferation; assay type: cell-based, mouse; settings: BMDCs treated with OVA-loaded coacervates 24 h, CTV-labeled OT-II T cells ~66 h, flow cytometry
Experimental: (§1) page 14: parameters across two channels: eGFP and DAPI. […] Cells were incubated at 37°C (protected from light) for 20 min, after which 5× staining volume of EasySep Buffer was added for another 5 min of incubation. The cells were counted again, centrifuged at 300 g for 5 min, resuspended in RPMI-1640 (Gibco 31800- 022) with 10% FBS (R and D Systems […]), 10 mM HEPES (Sigma H0887), 1× MEM NEAA (Gibco 11140-050), 1 mM sodium pyruvate (Gibco 11360-070), 1× pen-strep glutamine (Gibco 10378-016), and 55 μM β-mercaptoethanol (Gibco 21985-023) added fresh, and then plated onto treated BMDCs. The plates were incubated for ~66 h, after which supernatants were collected for Mouse Adaptive Immune CodePlex Secretome analyses (Bruker Cellular Analysis, Inc), and cells were collected for flow cytometry studies. Flow cytometry Total cells from the spleen and lymph nodes of OT-I/OT-II mice were washed with FACS […] staining. […] Data were analyzed with FlowJo version 10. Proliferation was quantified as the percentage of daughter cells out of single, live, CD4+ or CD8+T cells, gated as having a lower CTV fluorescence intensity than the peak of highest fluorescence (undivided). […] Data are expressed as mean ± S.E.M. and statistical analysis was performed using a one-way or two-way ANOVA with Tukey/Sidak's/Dunnett's multiple comparison test. *p ≤ 0.05, **p ≤ 0.01, ***p ≤ 0.001, ****p ≤ 0.0001. […]

[2] = Rheology testing of coacervate suspensions; assay type: physicochemical
Experimental: NaCl) was used to study ionic strength effects. The absorbance was further converted to turbidity using methods previously described 1 and data was plotted as relative turbidity.
Optical microscopy and dynamic light scattering (DLS)
Droplets were visualized in 1×PBS using NCI Leica DMC4500 microscope in reflection mode with differential interference contrast. Images were captured with a DMC4500 camera under the control of Leica LAS X software (version 3.4.2). Coacervate size was measured using 1 mM peptide solutions (1×PBS, pH 7.4) on a ZEN 3600 Zetasizer (Malvern Instruments, UK) using DLS-Zen 0040 specialized cuvettes. The results were reported as the means of three measurements, with 14 scans for each measurement.
Transmission electron microscopy (TEM)
Peptide solutions prepared for TEM were applied directly to 200-mesh, carbon-coated copper grids for 2 min and stained with 1% uranyl formate for 1 min. Excess stain was blotted using filter paper. Brightfield images were taken with a JEOL JEM-1400 transmission electron microscope with a NANOSPRT15 camera at an accelerating voltage of 120 kV.
Viscosity of the peptide solutions (1 mM or 2 mM) was tested using an ARES 2000ex rotational rheometer (TA Instruments, New Castle, DE). Peptides were freshly solubilized, and 170 µL of each was pipetted onto the rheometer stage. A 20-mm parallel plate geometry was lowered to a gap of 200 µm. Storage modulus (G′) and loss modulus (G″) were measured as a function of angular frequency (1–10 rad/s) with 1% strain. Viscosity was measured as a function […]
of shear rate (1–100 s-1). Separately, viscosity was measured using a Hagen-Poiseuille viscometer (RheoSense microVISC, San Ramon, CA) at a shear rate of 2500 s-1 to confirm viscosity differences at two different concentrations (1 mM and 2 mM).
Computational simulations
All simulations were performed using GROMACS 2023 2,3 and the CHARMM36m 4 force field. The necessary force field parameters and input files were generated using AlphaFold 5 predicted structures coupled with CHARMM-GUI 6. A single peptide chain was solvated in a 5-nm cubic box. […]

[3] = system: CD8+T cells from OT-I mice on BMDCs; assay: OT-I CD8+ T cell proliferation; assay type: cell-based, mouse; settings: BMDCs treated with OVA-loaded coacervates 24 h, CTV-labeled OT-I T cells ~66 h, flow cytometry
Experimental: as §1

[4] = angular frequency 1–10 rad/s, 1% strain

In the case of (GHGLY)4 [GL 20], the “CD4+T cell proliferation” value [1] is reported as “slightly higher”, the “fold increase in G′ compared to valine droplets” value [2, 4] is reported as ~3 fold and the “viscosity of coacervate suspension” value ([2]; parallel plate rheology at fixed shear rate, 1 or 2 mM peptide, compared to valine or proline variants) is reported as “greater viscosity”.

For (GHGVY)4 [GV 20], the “CD8+T cell proliferation” value [3] was “higher percentage of proliferated cells” and the “fold increase in G′ compared to proline” value [2, 4] was 2 fold.
